These results are taken from patent publication US12448389B2, “BRM targeting compounds and associated methods of use” (Prelude Therapeutics Incorporated, priority 2020, dated 2025).

A value given as a limit tells only on which side of the number the result lay.

What all share (format): cell-based
One assay deals with T1, SMARCA4 (Homo sapiens, UniProt P51532).
T1 construct: endogenous in cells; host or cells: NCI-H520 (given as NCIH520 / NCIH1520 / H520)
In words: SMARCA4 protein degradation in NCIH520 cells by In Cell Western (ICW). To be noted: highest concentration 1 μM; for DC50: H520 cells, overnight incubation (maximum 18 hours), read-out: DC50 (SM4_H520): SMARCA4 degradation potency; for Dmax: NCI-H520, overnight incubation (maximum 18 hours), read-out: Dmax % (SM4_H520): maximum SMARCA4 degradation within the concentrations tested. The method, then: (§1) Compounds were dissolved in DMSO to make 10 mM stock and 3-fold series dilutions were further conducted keeping the highest concentration 10 μM. NCIH11693 and NCIH1520 cells were maintained in PRMI 1640 medium (Corning Cellgro, Catalog #: 10-040-CV) supplemented with 10% v/v FBS (GE Healthcare, Catalog #: SH30910.03) by splitting 1:3 twice a week.
(§2) SMACRA2 and SMARCA4 Protein Degradation DC50 Values in NCIH1693 and NCIH520 Cells by in Cell Western (ICW) Analysis.
(§3) Cells were trypsinized and 30 thousand cells/well were seeded into 384-well plates and were allowed to grow for 1-2 hours at 37° C. Eight-point, 3-fold serial dilutions of compounds from 0.5 mM stocks were added to the cells (using digital Dispenser D300-Tecan, keeping highest concentration 1 μM and normalizing with DMSO at the highest dispensed volume). Plates were incubated at 37° C. for overnight (maximum 18 hours). Cells incubated with DMSO was used as a vehicle control.
(§4) To perform In Cell Western, medium was removed from all the wells leaving cells attached to the surface. After removing the medium, cells were fixed within the plates with 40 μL of 4% formaldehyde by incubating at room temperature for 30 minutes, and then permeabilized with wash buffer (1×PBS with 0.1% Triton X-100) by washing the plate 5 times with 50 μL/well. Before labeling with primary antibodies, cells were blocked with 30 μL/well of blocking buffer (Licor Odyssey blocking buffer PBS #927-40000) for 30 minutes at room temperature. To measure SMARCA2 or SMARCA4 proteins, cells were labeled with 20 μL/well of anti SMARCA2 or SMACRA4 antibodies (Cell Signaling BRM #11966S 1:800, Cell Signaling BRG #49360S 1:800) diluted in Li-Cor Odyssey blocking buffer-PBS #927-40000, followed by overnight incubation at 4° C.
(§5) The next day, plates were washed 5×5 minutes with 50 μL/well of washing buffer to remove all the excess primary antibody and then 20 μL from a mixture of secondary antibody and fluorescent DNA specific dye (Goat anti rabbit 1:500 IRDye-800CW #92632211, and DRAQ5™ 1:2000-#ab108410) was added to each well. Plates were incubated for 1 hour at room temperature with gentle rocking. Cells were washed 5 times with 50 μL/well wash buffer, followed by one last wash with DI water, followed by 10 mins drying at 37° C. oven before scanning. Plates were scanned using Li-Cor Odyssey CLx imaging system to acquire integrated intensities at 700 nm and 800 nm. SMARCA signals were normalized to total cell count and then these normalized values were used to calculate the percent degradation relative to DMSO control and maximum inhibition. DC50s were calculated by using the GraphPad Prism4 program based on sigmoidal dose response equation ([Inhibitor] vs. normalized response-Variable slope).
(§6) In Table 36, the DC50/Dmax% (SM2_H520) refers to SMARCA2 degradation potency/maximum SMARCA2 degradation within the concentrations in H520 cells and DC50/Dmax% (SM4_H520) refers to SMARCA4 degradation potency/maximum SMARCA4 degradation within the concentrations tested in H520 cells.

The target in a further assay is T2, SMARCA2 (Homo sapiens, UniProt P51531).
T2 construct: endogenous in cells; host or cells: NCI-H520 (given as NCIH520 / NCIH1520 / H520)
In words: SMARCA2 protein degradation in NCIH520 cells by In Cell Western (ICW). To be noted: highest concentration 1 μM; for DC50: H520 cells, overnight incubation (maximum 18 hours), read-out: DC50 (SM2_H520): SMARCA2 degradation potency; for Dmax: NCI-H520, overnight incubation (maximum 18 hours), read-out: Dmax % (SM2_H520): maximum SMARCA2 degradation within the concentrations tested. The method, then: as §1, §2, §3, §4, §5, §6

The next assay concerns the target T3, SMARCA4-HiBiT (Homo sapiens, UniProt P51532).
T3 construct: SMARCA4-HiBiT knock-in Hela monoclonal cell (CS3023226); host or cells: HeLa monoclonal knock-in line (CRISPR HiBiT knock-in at the endogenous locus, heterozygous)
Kind of assay: SMARCA4 HiBiT degradation assay in HeLa cells. To be noted: 18 hours incubation; for DC50: read-out: HeLa-HiBit-SM4 DC50; for Dmax: HeLa, read-out: HeLa-HiBit-SM4 Dmax (%). A digest of the protocol:
(§7)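 HeLa monoclonal lines with heterozygous HiBiT knock-in were seeded at 2500 cells/well in EMEM with 10% FBS and treated with compound for 18 h at 37 °C. Remaining tagged protein was measured by Nano-Glo HiBiT lytic luminescence after 30–60 min at RT, and values came from curve fitting.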
Background: The HiBiT peptide binds its large partner to form an active luciferase.

Another assay addresses T4, SMARCA2-HiBiT (Homo sapiens, UniProt P51531).
T4 construct: SMARCA2-HiBiT knock-in Hela monoclonal cell (CS302366); host or cells: HeLa monoclonal knock-in line (CRISPR HiBiT knock-in at the endogenous locus, heterozygous)
In words: SMARCA2 HiBiT degradation assay in HeLa cells. To be noted: 18 hours incubation; for DC50: read-out: HeLa_HiBit-SM2 DC50; for Dmax: HeLa, read-out: HeLa-HiBit-SM2 Dmax (%). Summed up: as §7

T3 sequence (P51532 whole entry): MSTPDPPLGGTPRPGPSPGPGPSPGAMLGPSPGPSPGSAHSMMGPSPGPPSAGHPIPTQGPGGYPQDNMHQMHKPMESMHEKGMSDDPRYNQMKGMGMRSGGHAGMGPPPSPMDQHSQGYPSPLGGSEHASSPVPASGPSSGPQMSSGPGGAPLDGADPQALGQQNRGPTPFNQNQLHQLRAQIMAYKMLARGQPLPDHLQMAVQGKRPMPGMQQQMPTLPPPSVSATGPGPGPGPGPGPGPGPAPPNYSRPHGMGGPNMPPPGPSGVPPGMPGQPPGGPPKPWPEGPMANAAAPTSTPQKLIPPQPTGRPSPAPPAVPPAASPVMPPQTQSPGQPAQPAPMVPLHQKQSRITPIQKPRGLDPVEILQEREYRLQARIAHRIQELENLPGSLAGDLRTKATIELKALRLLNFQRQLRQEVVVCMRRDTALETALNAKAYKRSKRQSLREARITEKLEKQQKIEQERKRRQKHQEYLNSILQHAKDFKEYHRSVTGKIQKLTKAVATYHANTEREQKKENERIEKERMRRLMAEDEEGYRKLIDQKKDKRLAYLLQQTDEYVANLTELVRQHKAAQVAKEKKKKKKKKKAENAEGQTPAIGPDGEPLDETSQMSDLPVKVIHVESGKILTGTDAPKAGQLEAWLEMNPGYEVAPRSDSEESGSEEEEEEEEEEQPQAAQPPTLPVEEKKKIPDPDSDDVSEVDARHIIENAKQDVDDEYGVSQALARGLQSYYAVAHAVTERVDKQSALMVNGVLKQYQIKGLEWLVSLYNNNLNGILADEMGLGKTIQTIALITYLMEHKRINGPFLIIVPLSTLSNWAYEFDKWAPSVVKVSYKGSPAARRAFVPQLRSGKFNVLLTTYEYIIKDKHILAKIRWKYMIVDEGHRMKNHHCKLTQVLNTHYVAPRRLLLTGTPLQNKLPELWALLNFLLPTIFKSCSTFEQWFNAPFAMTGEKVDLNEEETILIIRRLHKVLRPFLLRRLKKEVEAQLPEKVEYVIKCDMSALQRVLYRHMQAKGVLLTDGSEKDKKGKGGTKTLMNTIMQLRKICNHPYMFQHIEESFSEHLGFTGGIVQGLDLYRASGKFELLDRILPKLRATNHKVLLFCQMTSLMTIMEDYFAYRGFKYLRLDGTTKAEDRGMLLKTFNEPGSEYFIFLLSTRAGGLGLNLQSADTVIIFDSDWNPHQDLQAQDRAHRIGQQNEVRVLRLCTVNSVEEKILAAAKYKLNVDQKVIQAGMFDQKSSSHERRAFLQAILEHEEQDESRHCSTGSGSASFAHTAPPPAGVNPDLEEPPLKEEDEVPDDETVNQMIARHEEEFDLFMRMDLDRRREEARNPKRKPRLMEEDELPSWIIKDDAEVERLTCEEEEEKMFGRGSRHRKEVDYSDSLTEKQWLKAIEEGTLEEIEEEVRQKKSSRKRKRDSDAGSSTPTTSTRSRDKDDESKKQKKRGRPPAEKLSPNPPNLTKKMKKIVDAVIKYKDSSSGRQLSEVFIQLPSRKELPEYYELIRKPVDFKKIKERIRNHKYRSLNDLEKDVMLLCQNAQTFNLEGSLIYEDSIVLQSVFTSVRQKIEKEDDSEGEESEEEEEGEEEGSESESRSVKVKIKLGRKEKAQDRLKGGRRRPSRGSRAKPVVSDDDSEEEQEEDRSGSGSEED
T1 sequence (P51532 whole entry): as above
T4 sequence (P51531 whole entry): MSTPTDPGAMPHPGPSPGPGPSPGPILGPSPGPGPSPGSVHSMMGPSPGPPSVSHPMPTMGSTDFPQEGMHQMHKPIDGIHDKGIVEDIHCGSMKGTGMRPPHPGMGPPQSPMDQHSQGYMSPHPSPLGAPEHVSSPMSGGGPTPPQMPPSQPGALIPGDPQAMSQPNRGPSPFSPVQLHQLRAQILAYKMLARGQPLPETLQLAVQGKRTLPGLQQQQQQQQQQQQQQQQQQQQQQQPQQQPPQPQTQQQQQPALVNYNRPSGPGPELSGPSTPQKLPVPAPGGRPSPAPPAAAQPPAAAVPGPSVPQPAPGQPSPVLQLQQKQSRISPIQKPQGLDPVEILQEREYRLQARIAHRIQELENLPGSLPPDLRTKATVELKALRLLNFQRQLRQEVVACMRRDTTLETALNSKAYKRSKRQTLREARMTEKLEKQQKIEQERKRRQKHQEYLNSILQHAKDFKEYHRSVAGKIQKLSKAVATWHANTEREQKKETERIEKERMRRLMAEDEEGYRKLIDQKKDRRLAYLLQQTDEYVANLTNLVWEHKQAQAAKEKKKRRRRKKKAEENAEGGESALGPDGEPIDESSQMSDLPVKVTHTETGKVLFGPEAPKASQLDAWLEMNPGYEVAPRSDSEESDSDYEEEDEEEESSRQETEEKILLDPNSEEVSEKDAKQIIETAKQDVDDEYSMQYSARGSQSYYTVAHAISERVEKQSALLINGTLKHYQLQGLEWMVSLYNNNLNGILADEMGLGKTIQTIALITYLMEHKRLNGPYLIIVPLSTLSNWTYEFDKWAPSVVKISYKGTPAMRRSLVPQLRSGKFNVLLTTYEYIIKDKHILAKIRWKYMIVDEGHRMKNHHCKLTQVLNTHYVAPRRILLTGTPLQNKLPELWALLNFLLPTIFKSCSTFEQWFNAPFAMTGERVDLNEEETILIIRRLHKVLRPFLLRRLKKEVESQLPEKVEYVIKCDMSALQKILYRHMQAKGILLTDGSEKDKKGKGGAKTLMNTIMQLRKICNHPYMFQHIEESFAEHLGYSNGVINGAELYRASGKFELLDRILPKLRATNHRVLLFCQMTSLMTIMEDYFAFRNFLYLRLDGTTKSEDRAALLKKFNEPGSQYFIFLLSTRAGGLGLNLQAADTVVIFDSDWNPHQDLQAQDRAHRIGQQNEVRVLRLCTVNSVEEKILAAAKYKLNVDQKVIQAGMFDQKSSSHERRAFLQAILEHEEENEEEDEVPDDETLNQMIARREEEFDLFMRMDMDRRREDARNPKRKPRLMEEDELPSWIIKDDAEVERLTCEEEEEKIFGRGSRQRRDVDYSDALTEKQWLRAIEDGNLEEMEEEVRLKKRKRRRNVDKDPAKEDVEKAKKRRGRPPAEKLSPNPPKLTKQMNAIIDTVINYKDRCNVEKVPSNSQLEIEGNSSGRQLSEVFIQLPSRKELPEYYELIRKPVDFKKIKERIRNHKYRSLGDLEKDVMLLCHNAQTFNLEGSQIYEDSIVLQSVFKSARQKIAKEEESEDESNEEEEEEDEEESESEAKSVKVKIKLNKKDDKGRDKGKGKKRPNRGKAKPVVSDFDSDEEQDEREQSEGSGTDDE
T2 sequence (P51531 whole entry): as above

For `O=C1CCC(N2Cc3cc(CCN4CCC(OCCN5CCC(N6CCN7c8cc(-c9ccccc9O)nnc8NC[C@H]7C6)CC5)CC4)ccc3C2=O)C(=O)N1` (stereo partly drawn) [Example 8, 3-(5-(2-(4-(2-(4-((S)-2-(2-hydroxyphenyl)-5,6,6a,7,9,10-hexahydro-8H-pyrazino[1′,2′:4,5]pyrazino[2,3-c]pyridazin-8-yl)piperidin-1-yl)ethoxy)piperidin-1-yl)ethyl)-1-oxoisoindolin-2-yl)piperidine-2,6-dione], at SMARCA4, the DC50 was below 0.1 µM and the Dmax is above 75%. In addition, at SMARCA2, the DC50 is below 0.1 µM and the Dmax was above 75%.

Take `O=C1CCC(N2C(=O)c3ccc(N4CCC(OCCN5CCC(N6CCN7c8cc(-c9ccccc9O)nnc8NC[C@H]7C6)CC5)CC4)cc3C2=O)C(=O)N1` (stereo partly drawn) [Example 16, 2-(2,6-Dioxopiperidin-3-yl)-5-(4-(2-(4-((S)-2-(2-hydroxyphenyl)-5,6,6a,7,9,10-hexahydro-8H-pyrazino[1′,2′:4,5]pyrazino[2,3-c]pyridazin-8-yl)piperidin-1-yl)ethoxy)piperidin-1-yl) isoindoline-1,3-dione]: on SMARCA4, the DC50 was below 0.1 µM and the Dmax fell in the range of 50 to 75%. At SMARCA2, the DC50 was below 0.1 µM and the Dmax is above 75%.

For the compound `O=C1CCC(N2Cc3ccc(N4CCN(CCN5CCC(N6CCN7c8cc(-c9ccccc9O)nnc8NC[C@H]7C6)CC5)CC4)cc3C2=O)C(=O)N1` (stereo partly drawn) [Example 17, 3-(6-(4-(2-(4-((S)-2-(2-hydroxyphenyl)-5,6,6a,7,9,10-hexahydro-8H-pyrazino [1′,2′:4,5]pyrazino[2,3-c]pyridazin-8-yl)piperidin-1-yl)ethyl)piperazin-1-yl)-1-oxoisoindolin-2-yl)piperidine-2,6-dione], on SMARCA4, the DC50 was below 0.1 µM and the Dmax is above 75%. On SMARCA2, the DC50 is below 0.1 µM and the Dmax was above 75%.

For the compound `O=C1CCC(N2Cc3cc(CCN4CC=C(c5cnc(N6CCN7c8cc(-c9ccccc9O)nnc8NC[C@H]7C6)nc5)CC4)ccc3C2=O)C(=O)N1` (stereo partly drawn) [Example 6, 3-(5-(2-(4-(2-((S)-2-(2-hydroxyphenyl)-5,6,6a,7,9,10-hexahydro-8H-pyrazino[1′,2′:4,5]pyrazino[2,3-c]pyridazin-8-yl)pyrimidin-5-yl)-3,6-dihydropyridin-1(2H)-yl)ethyl)-1-oxoisoindolin-2-yl)piperidine-2,6-dione], the DC50 on SMARCA4 and at SMARCA2 was below 0.1 µM throughout. The Dmax at SMARCA4 and at SMARCA2 was above 75% throughout.

Consider `O=C1CCC(N2Cc3cc(CCN4CCC(c5cnc(N6CCN7c8cc(-c9ccccc9O)nnc8NC[C@H]7C6)nc5)CC4)ccc3C2=O)C(=O)N1` (stereo partly drawn) [Example 1, 3-(5-(2-(4-(2-((S)-2-(2-hydroxyphenyl)-5,6,6a,7,9,10-hexahydro-8H-pyrazino [1′,2′:4,5]pyrazino[2,3-c]pyridazin-8-yl)pyrimidin-5-yl)piperidin-1-yl)ethyl)-1-oxoiso-indolin-2-yl)piperidine-2,6-dione], for which the DC50 at SMARCA4 and at SMARCA2 was below 0.1 µM each time. In addition, the Dmax at SMARCA4 and on SMARCA2 was above 75% each time.

As to `O=C1CCC(n2c3ccc(CCCN4CCC(c5cnc(O[C@H]6C[C@@H]7CNc8nnc(-c9ccccc9O)cc8N7C6)nc5)CC4)cc3c3cccnc32)C(=O)N1` (stereo partly drawn) [Example 23, 3-(6-(3-(4-(2-(((6aR,8S)-2-(2-hydroxyphenyl)-5,6,6a,7,8,9-hexahydro-pyrrolo[1′,2′:4,5]pyrazino[2,3-c]pyridazin-8-yl)oxy)pyrimidin-5-yl)piperidin-1-yl)propyl)-9H-pyrido[2,3-b]indol-9-yl)piperidine-2,6-dione], at SMARCA2, the DC50 was below 0.1 µM and the Dmax was above 75%.

Turning to `O=C1CCC(n2c3ccc(CCCN4CCC(N5CCC(N6CCN7c8cc(-c9ccccc9O)nnc8NC[C@H]7C6)CC5)CC4)cc3c3cccnc32)C(=O)N1` (stereo partly drawn) [Example 20, 3-(6-(3-(4-((S)-2-(2-hydroxyphenyl)-5,6,6a,7,9,10-hexahydro-8H-pyrazino [1′,2′:4,5]pyrazino[2,3-c]pyridazin-8-yl)-[1,4′-bipiperidin]-1′-yl)propyl)-9H-pyrido[2,3-b]indol-9-yl)piperidine-2,6-dione], on SMARCA4, the DC50 was below 0.1 µM and the Dmax is above 75%. On SMARCA2, the DC50 is below 0.1 µM and the Dmax is above 75%.

With `O=C1CCC(N2C(=O)c3ccc(N4CCC(OCCN5CCC(N6CCN7c8cc(-c9ccccc9O)nnc8NC[C@H]7C6)C5)CC4)cc3C2=O)C(=O)N1` (stereo partly drawn) [Example 15, 2-(2,6-Dioxopiperidin-3-yl)-5-(4-(2-(3-((S)-2-(2-hydroxyphenyl)-5,6,6a,7,9,10-hexahydro-8H-pyrazino[1′,2′:4,5]pyrazino[2,3-c]pyridazin-8-yl)pyrrolidin-1-yl)ethoxy)piperidin-1-yl) isoindoline-1,3-dione], at SMARCA2, the DC50 is below 0.1 µM and the Dmax lay in the range of 50 to 75%.

For the compound `O=C1CCC(N2Cc3cc(CCN4CCC(N5CCC(N6CCN7c8cc(-c9ccccc9O)nnc8NC[C@H]7C6)CC5)CC4)ccc3C2=O)C(=O)N1` (stereo partly drawn) [Example 62, 3-(5-(2-(4-((S)-2-(2-hydroxyphenyl)-5,6,6a,7,9,10-hexahydro-8H-pyrazino[1′,2′:4,5]pyrazino[2,3-c]pyridazin-8-yl)-[1,4′-bipiperidin]-1′-yl)ethyl)-1-oxoisoindolin-2-yl)piperidine-2,6-dione], the DC50 on SMARCA4-HiBiT and at SMARCA2-HiBiT was below 0.01 µM each time. Also, the Dmax at SMARCA4-HiBiT and at SMARCA2-HiBiT was above 85% each time.

Turning to `O=C1CCC(N2C(=O)c3ccc(N4CCN(CCN5CCC(N6CCN7c8cc(-c9ccccc9O)nnc8NC[C@H]7C6)CC5)CC4)cc3C2=O)C(=O)N1` (stereo partly drawn) [Example 155, 2-(2,6-dioxopiperidin-3-yl)-5-(4-(2-(4-((S)-2-(2-hydroxyphenyl)-5,6,6a,7,9,10-hexahydro-8H-pyrazino[1′,2′:4,5]pyrazino[2,3-c]pyridazin-8-yl)piperidin-1-yl)ethyl)piperazin-1-yl)isoindoline-1,3-dione], at SMARCA4-HiBiT, the DC50 is below 0.01 µM and the Dmax was above 85%. At SMARCA2-HiBiT, the DC50 is below 0.01 µM and the Dmax is above 85%.

On to `NC1(C(=O)OCN2C(=O)CCC(N3C(=O)c4ccc(N5CCC(CN6CCC(CN7CCN8c9cc(-c%10ccccc%10O)nnc9NC[C@H]8C7)CC6)CC5)cc4C3=O)C2=O)CC1` (stereo partly drawn) [Example 131, (3-(5-(4-((4-(((S)-2-(2-hydroxyphenyl)-5,6,6a,7,9,10-hexahydro-8H-pyrazino[1′,2′:4,5]pyrazino[2,3-c]pyridazin-8-yl)methyl)piperidin-1-yl)methyl)piperidin-1-yl)-1,3-dioxoisoindolin-2-yl)-2,6-dioxopiperidin-1-yl)methyl 1-aminocyclopropane-1-carboxylate], for which, on SMARCA4-HiBiT, the DC50 was below 0.01 µM and the Dmax is above 85%. At SMARCA2-HiBiT, the DC50 is below 0.01 µM and the Dmax was above 85%.

A word on the DC50: it is the midpoint of the concentration-degradation curve.
